{
  "source": "ChEMBL document CHEMBL1130491",
  "about": "“Nonpeptide bradykinin antagonist analogs based on a model of a Sterling-Winthrop nonpeptide bradykinin antagonist overlapped with cyclic hexapeptide bradykinin antagonist peptides” (Bioorg Med Chem Lett, 1997)",
  "key": {"[1]": {"assay": "Binding affinity towards human Bradykinin receptor, activity expressed as Kd"}, "Substance-P receptor": {"target": "Substance-P receptor (Homo sapiens, UniProt P25103)", "sequence (P25103 whole entry)": "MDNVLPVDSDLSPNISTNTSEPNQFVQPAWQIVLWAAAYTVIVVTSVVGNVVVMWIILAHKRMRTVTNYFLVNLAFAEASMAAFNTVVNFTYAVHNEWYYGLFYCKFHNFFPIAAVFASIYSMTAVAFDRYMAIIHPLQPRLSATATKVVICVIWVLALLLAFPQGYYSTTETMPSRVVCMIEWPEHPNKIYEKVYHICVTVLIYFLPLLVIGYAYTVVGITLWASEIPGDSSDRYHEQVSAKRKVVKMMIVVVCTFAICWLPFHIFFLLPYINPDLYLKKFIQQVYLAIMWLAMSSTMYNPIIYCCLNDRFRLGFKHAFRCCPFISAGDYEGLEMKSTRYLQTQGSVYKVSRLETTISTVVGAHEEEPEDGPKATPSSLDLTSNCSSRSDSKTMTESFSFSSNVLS", "assay": "Binding affinity towards Tachykinin receptor 1, activity expressed as Kd"}},
  "data": [
    {"compound": "CCCC[N+](CCCC)(CCCC)Cc1ccc(NC(=O)[C@@H](Cc2ccc3ccccc3c2)N=C(NC2CCCCC2)NC2CCCCC2)cc1", "values": [
      {"measurement": "Kd", "setting": "[1]", "value": 0.079, "unit": "µM"},
      {"measurement": "Kd", "setting": "Substance-P receptor", "value": 0.29, "unit": "µM"}
    ]},
    {"compound": "NCc1ccc(NC(=O)[C@@H](Cc2ccc3ccccc3c2)N=C(NC2CCCCC2)NC2CCCCC2)cc1", "values": [
      {"measurement": "Kd", "setting": "[1]", "value": 0.45, "unit": "µM"}
    ]},
    {"compound": "N=C(N)NCc1ccc(NC(=O)[C@H](Cc2ccc3ccccc3c2)N=C(NC2CCCCC2)NC2CCCCC2)cc1", "values": [
      {"measurement": "Kd", "setting": "[1]", "value": 0.33, "unit": "µM"},
      {"measurement": "Kd", "setting": "Substance-P receptor", "value": 1.1, "unit": "µM"}
    ]},
    {"compound": "CCCC[N+](CCCC)(CCCC)Cc1ccc(NC(=O)[C@H](Cc2ccc3ccccc3c2)N=C(NC2CCCCC2)NC2CCCCC2)cc1", "values": [
      {"measurement": "Kd", "setting": "[1]", "value": 0.098, "unit": "µM"},
      {"measurement": "Kd", "setting": "Substance-P receptor", "value": 0.54, "unit": "µM"}
    ]},
    {"compound": "O=C(Nc1ccc(CO)cc1)[C@H](Cc1ccc2ccccc2c1)N/C(=N/C1CCCCC1)NC1CCCCC1", "values": [
      {"measurement": "Kd", "setting": "[1]", "value": 2.1, "unit": "µM"}
    ]},
    {"compound": "N=C(N)NCCC[C@@H](NC(=O)C12CC3CC(CC(C3)C1)C2)C(=O)NCc1ccc(NC(=O)[C@H](Cc2ccc3ccccc3c2)N=C(NC2CCCCC2)NC2CCCCC2)cc1", "values": [
      {"measurement": "Kd", "setting": "[1]", "value": 0.99, "unit": "µM"}
    ]},
    {"compound": "NC(N)=NCCC[C@H](N)C(=O)NCc1ccc(NC(=O)[C@H](Cc2ccc3ccccc3c2)N=C(NC2CCCCC2)NC2CCCCC2)cc1", "values": [
      {"measurement": "Kd", "setting": "[1]", "value": 0.39, "unit": "µM"},
      {"measurement": "Kd", "setting": "Substance-P receptor", "value": 1.5, "unit": "µM"}
    ]},
    {"compound": "CCCC[P+](CCCC)(CCCC)Cc1ccc(NC(=O)[C@H](Cc2ccc3ccccc3c2)N=C(NC2CCCCC2)NC2CCCCC2)cc1", "values": [
      {"measurement": "Kd", "setting": "[1]", "value": 0.34, "unit": "µM"},
      {"measurement": "Kd", "setting": "Substance-P receptor", "value": 0.67, "unit": "µM"}
    ]},
    {"compound": "CCCC[P+](CCCC)(CCCC)Cc1ccc(NC(=O)[C@H](Cc2ccc3ccccc3c2)NC(=O)NC2CCCCC2)cc1", "values": [
      {"measurement": "Kd", "setting": "[1]", "value": 1.6, "unit": "µM"},
      {"measurement": "Kd", "setting": "Substance-P receptor", "value": 1.3, "unit": "µM"}
    ]},
    {"compound": "CCCC[P+](CCCC)(CCCC)Cc1ccc(NC(=O)[C@@H](Cc2ccc3ccccc3c2)N=C(NC2CCCCC2)NC2CCCCC2)cc1", "values": [
      {"measurement": "Kd", "setting": "[1]", "value": 0.044, "unit": "µM"},
      {"measurement": "Kd", "setting": "Substance-P receptor", "value": 0.37, "unit": "µM"}
    ]},
    {"compound": "O=C(Nc1ccc(CO)cc1)[C@@H](Cc1ccc2ccccc2c1)N=C(NC1CCCCC1)NC1CCCCC1", "values": [
      {"measurement": "Kd", "setting": "[1]", "value": 1.5, "unit": "µM"}
    ]},
    {"compound": "CC/N=C(\\NCC)NCc1ccc(NC(=O)[C@H](Cc2ccc3ccccc3c2)N=C(NC2CCCCC2)NC2CCCCC2)cc1", "values": [
      {"measurement": "Kd", "setting": "[1]", "value": 0.46, "unit": "µM"},
      {"measurement": "Kd", "setting": "Substance-P receptor", "value": 1.8, "unit": "µM"}
    ]},
    {"compound": "NCc1ccc(NC(=O)[C@H](Cc2ccc3ccccc3c2)N=C(NC2CCCCC2)NC2CCCCC2)c(C(=O)O)c1", "values": [
      {"measurement": "Kd", "setting": "[1]", "value": 0.69, "unit": "µM"},
      {"measurement": "Kd", "setting": "Substance-P receptor", "value": 3.8, "unit": "µM"}
    ]},
    {"compound": "NCc1ccc(N(CCC(=O)O)C(=O)[C@H](Cc2ccc3ccccc3c2)N=C(NC2CCCCC2)NC2CCCCC2)cc1", "values": [
      {"measurement": "Kd", "setting": "[1]", "value": 1.5, "unit": "µM"}
    ]},
    {"compound": "N=C(N)NCc1ccc(NC(=O)[C@@H](Cc2ccc3ccccc3c2)N=C(NC2CCCCC2)NC2CCCCC2)cc1", "values": [
      {"measurement": "Kd", "setting": "[1]", "value": 0.2, "unit": "µM"},
      {"measurement": "Kd", "setting": "Substance-P receptor", "value": 0.86, "unit": "µM"}
    ]},
    {"compound": "NCc1ccc(NC(=O)[C@H](Cc2ccc3ccccc3c2)N=C(NC2CCCCC2)NC2CCCCC2)cc1", "values": [
      {"measurement": "Kd", "setting": "[1]", "value": 0.8, "unit": "µM"},
      {"measurement": "Kd", "setting": "Substance-P receptor", "value": 1.3, "unit": "µM"}
    ]},
    {"compound": "NC(N)=NCCC[C@@H](N)C(=O)NCc1ccc(NC(=O)[C@H](Cc2ccc3ccccc3c2)N=C(NC2CCCCC2)NC2CCCCC2)cc1", "values": [
      {"measurement": "Kd", "setting": "[1]", "value": 0.23, "unit": "µM"}
    ]}
  ]
}
